Results from patent publication US3988340A, “6-Alkoxymethyl-1,2,3,5-tetrahydroimidazo[2,1-b]quinazolin-2-ones and 7-alkoxymethyl-6-[H]-1,2,3,4-tetrahydropyrimido[2,1-b]quinazolin-2-ones” (Bristol-Myers Company, priority 1975, dated 1976).
≈ marks a conversion by molar mass, not a printed value. Like-named read-outs stand apart in the source and are kept apart here.

What was measured:
[1] = Crystal formation in the liver of dogs at very high doses; type: in vivo, dog; conditions: compound or a metabolite
[2] = In vivo solubility of compound or metabolite; type: physicochemical; conditions: compound or its metabolite, versus BL-3459
[3] = tested on: electrically induced carotid artery thrombosis; experiment: Electrically induced carotid artery thrombosis in the dog; type: in vivo; conditions: Canis lupus familiaris, po
From the text: (§1) Methodology for these three in vivo techniques has been previously reported (4, 5).

[4] = Hypotensive activity compared with BL-3459; type: in vivo; conditions: associated with antiaggregative activity; versus BL-3459
[5] = tested on: biolaser induced thrombosis; experiment: Biolaser induced thrombosis in the rabbit ear chamber; type: in vivo
From the text: as §1

[6] = Mean aortic blood pressure in rats after oral administration; type: in vivo; conditions: 50 mg/kg oral; for Mean Aortic Blood Pressure % Change / Mean Aortic Blood Pressure: N=9, mean ± 1 S.E.
Method: The blood pressure of unanesthetized rats and dogs was measured directly by means of a transducer attached to an intra-arterial cannula and in anesthetized dogs by a mercury manometer attached to a carotid cannula.
The compounds of the instant invention were tested as the hydrochloride salts by the above method in normotensive rats in doses of 50 mg./kg. orally.
Compound 12a (BL-4784a) was tested for its hypotensive activity in rats as follows:
Rats were dosed orally with the test drug (50 mg/kg) or saline and blood pressure measurements were made at 30, 90, 150 and 300 mins. after drug administration.
Saline administration in a volume equivalent to drug administration had only a minimal effect.

Dog Platelet Rich Plasma [7] = experiment: In vitro inhibition of ADP induced platelet aggregation in the aggregometer, dog platelet rich plasma; type: cell-based; conditions: Canis lupus familiaris, read-out: EC50 & 95% Confidence Limits
[8] = tested on: Rabbit Platelet Rich Plasma; experiment: In vitro inhibition of induced platelet aggregation in the aggregometer, rabbit platelet rich plasma; type: cell-based; conditions: Oryctolagus cuniculus, read-out: EC50 & 95% Confidence Limits
Method: The aggregometer method of Born (1), as modified by Mustard et al. (2) was used to assess the in vitro activity of the various compounds as to inhibition of adenosine diphosphate (ADP) and collagen induced platelet aggregation. Platelet rich plasma was separated by centrifugation from citrated (3.8 percent) rabbit blood. […] (3) was used to induce aggregation. The various compounds tested were dissolved in dimethylsulfoxide (DMSO) so that 5 mcl. added to the platelet rich plasma would yield the desired test concentration. Vehicle control trials were done and compared with aggregation induced in platelet rich plasma containing various concentrations of the test compounds. Dose response curves were obtained and Effective Concentration (EC50) values calculated.
Compound 12a (BL-4784A) has been evaluated in a series of in vitro, ex vivo and in vivo animal models of platelet aggregation and thrombosis.

[9] = tested on: blood platelet aggregation; experiment: Blood platelet antiaggregative potency compared with BL-3459; conditions: versus BL-3459
Dog Platelet Rich Plasma [10] = experiment: Ex vivo ADP induced platelet aggregation in dog PRP after oral drug administration; conditions: Canis lupus familiaris, PRP obtained before and 1 hr. after oral drug administration, read-out: ED50, ex vivo inhibition of ADP induced aggregation
Method: BL-4784A was also tested ex vivo in dogs where ADP was used to induce aggregation in PRP samples obtained before and 1 hr. after oral drug administration.
Before dosing the animals, blood samples are taken. The blood is centrifuged to obtain the blood platelet-rich plasma. Aggregation of this plasma is induced with ADP or collagen. This is the control.
The animals are then dosed with the compounds to be tested (orally or parenterally). Depending upon the route of administration, one to two hours are allowed to elapse after dosing. Blood is drawn and the same procedure as for the control in untreated animals.
The dose required to produce 50% inhibition of the aggregation is determined by dose response data obtained in this manner.

[11] = Crystal deposits in tissues of animal species evaluated; type: in vivo; conditions: any tissue of any animal species evaluated up to the present time

Cc1cccc2c1CN1CC(=O)NC1=N2 [BL-3459]
Crystal formation in liver [1]: formed crystals in the liver of dogs at very high doses

COCc1cccc2c1CN1CC(=O)NC1=N2 [Compound 12a, 6-(α-methoxymethyl)-1,2,3,5-tetrahydroimidazo[2,1-b]quinazolin-2-one]
Solubility in vivo [2]: more soluble in vivo
ED50 [3]: 10.5 mg/kg
Degree of hypotensive activity [4]: lower degree of hypotensive activity
ED50 ([5]; Oryctolagus cuniculus, rabbit ear chamber, po): 5.3 mg/kg
Activity in in vivo animal models of thrombosis ([5]; result in words for three in vivo animal models): significant activity in three in vivo animal models
Aortic blood pressure lowering ([6]; result in words): significant lowering of aortic blood pressure
Mean Aortic Blood Pressure % Change ([6]; 30 min): -33 ± 4%
Mean Aortic Blood Pressure ([6]; 30 min, *P = <.05): 73 ± 5 mm Hg
Mean Aortic Blood Pressure % Change ([6]; 90 min): -27 ± 4%
Mean Aortic Blood Pressure ([6]; 90 min, *P = <.05): 79 ± 3 mm Hg
Mean Aortic Blood Pressure % Change ([6]; 150 min): -23 ± 2%
Mean Aortic Blood Pressure ([6]; 150 min, *P = <.05): 84 ± 3 mm Hg
Mean Aortic Blood Pressure % Change ([6]; 300 min): -20 ± 4%
Mean Aortic Blood Pressure ([6]; 300 min, *P = <.05): 87 ± 3 mm Hg
Mean Aortic Blood Pressure ([6]; time 0 min (before drug)): 111 ± 3 mm Hg
EC50 (Dog Platelet Rich Plasma [7]): 0.19 µg/mL (≈ 0.822 µM)
EC50 ([8]; ADP induced (2.93 × 10^-5 M)): 0.2 µg/mL (≈ 0.865 µM)
EC50 ([8]; Antigen-Antibody complex (egg albumin, 2 μg/ml), PRP from sensitized rabbits): 0.13 µg/mL
EC50 ([8]; Arachidonic acid induced (50 μg/ml)): 0.27 µg/mL (≈ 1.17 µM)
EC50 ([8]; Collagen induced): 0.09 µg/mL (≈ 0.389 µM)
EC50 ([8]; Thrombin induced (1 unit per ml)): 0.63 µg/mL (≈ 2.72 µM)
Potency as blood platelet antiaggregate [9]: more potent than BL-3459
ED50 (Dog Platelet Rich Plasma [10]): 1.79 mg/kg
Crystal deposits in tissue [11]: no crystal deposits have been observed in any tissue of any animal species
